Legend:
NOTCH-1 = assay: NOTCH-sensitive luciferase reporter gene assay in transiently transfected U2OS cells; format: cell-based, human
Method: FIG. 4A-4B. HD and PEST domain mutations activate NOTCH-1 signaling synergistically. (4A) Reporter gene assays. U2OS cells were transiently co-transfected in 24-well format with the indicated pcDNA3 plasmids, a NOTCH-responsive luciferase reporter gene, and an internal Renilla luciferase internal control plasmid, as described previously (Aster, et al., Mol. Cell. Biol. 20:7505-15). Twenty-five ng of pcDNA3 plasmid was used per well, except for experiments with pcDNA3-ICN1, in which 5 ng of plasmid per well were used. Normalized luciferase activities in whole cell lysates were determined in triplicate and expressed relative to the activity in lysates prepared from cells transfected with the empty vector control. (4B) Model for synergistic NOTCH-1 activation by dual mutations involving both the HD and PEST domains.
NOTCH-1 expression plasmids (pcDNA3) were transiently transfected with U2OS cells with (i) an artificial luciferase reporter gene under the control of a promoter containing CSL binding sites and (ii) an internal Renilla luciferase control gene, as described previously (Aster, et al., Mol. Cell. Biol. 20:7505-7515 (2000)), using Lipofectamine Plus (Invitrogen). Total DNA was kept constant by adding empty vector as needed. All transfections were carried out in triplicate, and each experiment was repeated at least three times.

human T-ALL cell lines = assay: Gamma-secretase inhibitor treatment of T-ALL cell lines, cell cycle analysis by flow cytometry; format: cell-based; settings: compound E 1 μM, 4-8 days; thirty human T-ALL cell lines lacking t(7;9); compared with murine T6E reference line
Method: FIG. 2A-2C. Identification of T-ALL cell lines that require NOTCH signals for growth. (2A) Effect of the γ-secretase inhibitor compound E (GSI, 1 μM) or vehicle alone (mock) on the cell cycle distribution of sensitive cell lines. Cells were treated for 4-8 days, fixed in cold 70% ethanol, stained with propidium iodide, and analyzed by flow cytometry. Live cells were gated by forward/side scatter criteria. (2B) Rescue of GSI-induced cell cycle arrest by MSCV-GFP-ICN1 retrovirus. (2C) Induction of cell cycle arrest by dominant negative MSCV-GFP-Mastermind-like-1 retrovirus. In (2B) and (2C), control cultures were transduced with control empty MSCV-GFP retrovirus or the indicated test virus. Two days post-transduction, cultures were split in two and treated with either compound E (GSI) or DMSO vehicle (mock) for 7-10 days. Cultures were then harvested and stained with the DNA dye DRAQ5, which permits flow cytometric measurement of DNA content in unsorted GFP− and GFP+ subpopulations. A minimum of 15,000 events was collected to create each DNA content histogram. […]
DNA content was ascertained by flow cytometry and cell cycle factors determined using multicycle software (Phoenix Flow Systems, San Diego).

## C[C@H](NC(=O)Cc1cc(F)cc(F)c1)C(=O)N[C@H]1N=C(c2ccccc2)c2ccccc2N(C)C1=O [γ-secretase inhibitor, compound E]
NOTCH-1; HD and/or PEST domain mutated NOTCH-1 plasmids
  stimulatory effects of mutated transmembrane NOTCH-1 polypeptides on luciferase reporter activity: completely abrogated
NOTCH-1; pcDNA3-ICN1 (constitutively nuclear)
  stimulation of luciferase reporter activity produced by ICN1: unaffected
Human T-ALL cell lines
  cell cycle distribution (G0/G1 cell cycle arrest) of T-ALL cell lines: five of thirty human T-ALL cell lines tested showed a G0/G1 cell cycle arrest

Source: patent publication US8716233B2, “NOTCH mutations leading to increased receptor signaling” (The Brigham and Women's Hospital, Inc., priority 2004, dated 2014)
